Consider 22 molecules from patent publication US20250213575A1, “8-HETEROCYCLIC-3-(PHENYLSULFONYL)-[1,2,3]TRIAZOLO[1,5A]QUINAZOLIN-5(4H)-ONE DERIVATIVES AS ANTI-BACTERIALS” (priority 2022, published 2025).

A value given as a limit tells only on which side of the number the result lay.

This test deals with AgrA (Staphylococcus aureus, UniProt P0A0I7). Nature of the test: cell-based. Also on record: species or system S. aureus USA300 strain UAMS-1625. To be noted: for Ratio IC50 (in presence of HSA)/IC50 (in absence of HSA): 40 mg/mL HSA vs without HSA.
The mark [1] stands for this setting: IC50 at 40 mg/mL HSA, LB medium supplemented with 40 mg/mL human serum albumin.
[2] abbreviates: IC50 without HSA, LB medium, without HSA.

Sequence of AgrA (P0A0I7 whole entry): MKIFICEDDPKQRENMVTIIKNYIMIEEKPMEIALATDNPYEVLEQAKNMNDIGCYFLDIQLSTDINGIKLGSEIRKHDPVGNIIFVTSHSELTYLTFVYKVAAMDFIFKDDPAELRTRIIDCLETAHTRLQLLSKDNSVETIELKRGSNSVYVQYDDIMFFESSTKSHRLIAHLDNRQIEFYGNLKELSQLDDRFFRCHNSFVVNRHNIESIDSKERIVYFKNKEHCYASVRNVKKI

The term IC50 denotes the midpoint of a concentration-inhibition curve. In the case of `Cc1ccc(S(=O)(=O)c2nnn3c2[nH]c(=O)c2ccc(N4CCC45CN(C)C5)cc23)c(C)c1` [Compound 11, 3-(2,4-dimethylbenzenesulfonyl)-8-{6-methyl-1,6-diazaspiro[3.3]heptan-1-yl}-4H,5H-[1,2,3]triazolo[1,5-a]quinazolin-5-one], the “Ratio IC50 (in presence of HSA)/IC50 (in absence of HSA)” value (“Ratio IC50 (in presence of HSA)/IC50” for short) is listed as “+++ (ratio ≤ 25)”. This molecule displayed an IC50 under setting [1] of 21.5 to 108 µM. The molecule further yielded an IC50 under setting [2] of 2.15 to 10.8 µM.
For `Cc1ccc(S(=O)(=O)c2nnn3c2[nH]c(=O)c2ccc(N4CC5(CCN5C)C4)cc23)c(C)c1` [Compound 12, 3-(2,4-dimethylbenzenesulfonyl)-8-{1-methyl-1,6-diazaspiro[3.3]heptan-6-yl}-4H,5H-[1,2,3]triazolo[1,5-a]quinazolin-5-one], the “Ratio IC50 (in presence of HSA)/IC50” value is reported as “+++ (ratio ≤ 25)”. Under setting [1], this molecule displayed an IC50 of 21.5 to 108 µM. Also, the IC50 under setting [2] was < 2.15 µM.
On to `Cc1ccc(S(=O)(=O)c2nnn3c2[nH]c(=O)c2ccc(N4CC5(COC5)C4)cc23)c(C)c1` [Compound 13, 3-(2,4-dimethylbenzenesulfonyl)-8-{2-oxa-6-azaspiro[3.3]heptan-6-yl}-4H,5H-[1,2,3]triazolo[1,5-a]quinazolin-5-one], for which the “Ratio IC50 (in presence of HSA)/IC50” value is “++ (ratio ≤ 125)”. This molecule also came in with an IC50 under setting [1] of 22.1 to 111 µM. The IC50 under setting [2] is < 2.21 µM.
Regarding `Cc1ccc(S(=O)(=O)c2nnn3c2[nH]c(=O)c2ccc(N4CC5(CN(C)C5)C4)cc23)c(C)c1` [Compound 14, 3-(2,4-dimethylbenzenesulfonyl)-8-{6-methyl-2,6-diazaspiro[3.3]heptan-2-yl}-4H,5H-[1,2,3]triazolo[1,5-a]quinazolin-5-one], the “Ratio IC50 (in presence of HSA)/IC50” value was “+++ (ratio ≤ 25)”. Also, the IC50 under setting [1] fell in the range of 21.5 to 108 µM. In addition, the IC50 under setting [2] lay in the range of 2.15 to 10.8 µM.
The matching figures for `Cc1ccc(S(=O)(=O)c2n[nH]n3c2nc(=O)c2ccc(N4CCC5(CC4)CNCCO5)cc23)c(C)c1` [Compound 15, 3-(2,4-dimethylbenzenesulfonyl)-8-{1-oxa-4,9-diazaspiro[5.5]undecan-9-yl}-1H,5H-[1,2,3]triazolo[1,5-a]quinazolin-5-one]: “+++ (ratio ≤ 25)”, 19.7 to 98.3 µM and < 1.97 µM.
The matching figures for `Cc1ccc(S(=O)(=O)c2n[nH]n3c2nc(=O)c2ccc(N4CCC5(CC4)CN(C)CCO5)cc23)c(C)c1` [Compound 16, 3-(2,4-dimethylbenzenesulfonyl)-8-{4-methyl-1-oxa-4,9-diazaspiro[5.5]undecan-9-yl}-1H,5H-[1,2,3]triazolo[1,5-a]quinazolin-5-one]: “++ (ratio ≤ 125)”, 19.1 to 95.7 µM and < 1.91 µM.
The matching figures for `Cc1ccc(S(=O)(=O)c2n[nH]n3c2nc(=O)c2ccc(N4CCOC5(CCNCC5)C4)cc23)c(C)c1` [Compound 17, 3-(2,4-dimethylbenzenesulfonyl)-8-{1-oxa-4,9-diazaspiro[5.5]undecan-4-yl}-1H,5H-[1,2,3]triazolo[1,5-a]quinazolin-5-one]: “+++ (ratio ≤ 25)”, 19.7 to 98.3 µM and 1.97 to 9.83 µM.
As to `Cc1ccc(S(=O)(=O)c2n[nH]n3c2nc(=O)c2ccc(N4CCOC5(CCN(C)CC5)C4)cc23)c(C)c1` [Compound 18, 3-(2,4-dimethylbenzenesulfonyl)-8-{9-methyl-1-oxa-4,9-diazaspiro[5.5]undecan-4-yl}-1H,5H-[1,2,3]triazolo[1,5-a]quinazolin-5-one], the “Ratio IC50 (in presence of HSA)/IC50” value is given as “+++ (ratio ≤ 25)”. Moreover, the concentration for half-maximal inhibition (IC50) under setting [1] is 19.1 to 95.7 µM. Also, the IC50 under setting [2] is 1.91 to 9.57 µM.
For `Cc1ccc(S(=O)(=O)c2n[nH]n3c2nc(=O)c2ccc(N4CCC5(CCNC[C@@H]5O)CC4)cc23)c(C)c1` [Compound 19, 3-(2,4-dimethylbenzenesulfonyl)-8-[(7R)-7-hydroxy-3,9-diazaspiro[5.5]undecan-3-yl]-1H,5H-[1,2,3]triazolo[1,5-a]quinazolin-5-one] the same measures were “+++ (ratio ≤ 25)”, 19.1 to 95.7 µM and 1.91 to 9.57 µM.
Turning to `Cc1ccc(S(=O)(=O)c2n[nH]n3c2nc(=O)c2ccc(N4CC5(CC(O)C5)C4)cc23)c(C)c1` [Compound 20, 3-(2,4-dimethylbenzenesulfonyl)-8-{6-hydroxy-2-azaspiro[3.3]heptan-2-yl}-1H,5H-[1,2,3]triazolo[1,5-a]quinazolin-5-one], the “Ratio IC50 (in presence of HSA)/IC50” value is “++ (ratio ≤ 125)”. The IC50 under setting [1] was 21.5 to 107 µM. Also, the IC50 under setting [2] is < 2.15 µM.
Take `Cc1ccc(S(=O)(=O)c2n[nH]n3c2nc(=O)c2ccc(N4CC5(C4)CC(C)(O)C5)cc23)c(C)c1` [Compound 21, 3-(2,4-dimethylbenzenesulfonyl)-8-{6-hydroxy-6-methyl-2-azaspiro[3.3]heptan-2-yl}-1H,5H-[1,2,3]triazolo[1,5-a]quinazolin-5-one]: the “Ratio IC50 (in presence of HSA)/IC50” value is “++ (ratio ≤ 125)”. For the same molecule, under setting [1], the IC50 lay in the range of 20.9 to 104 µM. Further, the 50% inhibitory concentration (IC50) under setting [2] is < 2.09 µM.
With `Cc1ccc(S(=O)(=O)c2nnn3c2[nH]c(=O)c2ccc(N4CCN(C)CC4)cc23)c(C)c1` [Compound 22, 3-(2,4-dimethylbenzenesulfonyl)-8-(4-methylpiperazin-1-yl)-4H,5H-[1,2,3]triazolo[1,5-a]quinazolin-5-one], the “Ratio IC50 (in presence of HSA)/IC50” value was “+++ (ratio ≤ 25)”. In addition, the IC50 under setting [1] was in the range of 22.1 to 110 µM. Further, under setting [2], the IC50 is < 2.21 µM.
For `Cc1ccc(S(=O)(=O)c2nnn3c2[nH]c(=O)c2ccc(N4C[C@@H](C)N[C@@H](C)C4)cc23)c(C)c1` [Compound 24, 3-(2,4-dimethylbenzenesulfonyl)-8-[(3R,5S)-3,5-dimethylpiperazin-1-yl]-4H,5H-[1,2,3]triazolo[1,5-a]quinazolin-5-one] the same measures were “+++ (ratio ≤ 25)”, 21.4 to 107 µM and 2.14 to 10.7 µM.
Consider `Cc1ccc(S(=O)(=O)c2nnn3c2[nH]c(=O)c2ccc(N4C[C@@H](C)N(C)[C@@H](C)C4)cc23)c(C)c1` [Compound 25, rac-3-(2,4-dimethylbenzenesulfonyl)-8-[(3R,5S)-3,4,5-trimethylpiperazin-1-yl]-4H,5H-[1,2,3]triazolo[1,5-a]quinazolin-5-one], for which the “Ratio IC50 (in presence of HSA)/IC50” value was “+++ (ratio ≤ 25)”. Further, the IC50 under setting [1] is < 20.8 µM. Moreover, the IC50 under setting [2] was < 2.08 µM.
The matching figures for `Cc1ccc(S(=O)(=O)c2nnn3c2[nH]c(=O)c2ccc(N4CC(C)NC(C)C4)cc23)c(C)c1` (stereo not drawn) [Compound 26, 3-(2,4-dimethylbenzenesulfonyl)-8-(3,5-dimethylpiperazin-1-yl)-4H,5H-[1,2,3]triazolo[1,5-a]quinazolin-5-one]: “+++ (ratio ≤ 25)”, 21.4 to 107 µM and 2.14 to 10.7 µM.
On to `Cc1ccc(S(=O)(=O)c2nnn3c2[nH]c(=O)c2ccc(N4CC(C)N(C)C(C)C4)cc23)c(C)c1` (stereo not drawn) [Compound 27, 3-(2,4-dimethylbenzenesulfonyl)-8-(3,4,5-trimethylpiperazin-1-yl)-4H,5H-[1,2,3]triazolo[1,5-a]quinazolin-5-one], for which the “Ratio IC50 (in presence of HSA)/IC50” value was “+++ (ratio ≤ 25)”. Besides, the IC50 under setting [1] is 20.8 to 104 µM. For the same molecule, the IC50 under setting [2] is < 2.08 µM.
The matching figures for `Cc1ccc(S(=O)(=O)c2nnn3c2[nH]c(=O)c2ccc(N4CCN(C)C(C)(C)C4)cc23)c(C)c1` [Compound 29, 3-(2,4-dimethylbenzenesulfonyl)-8-(3,3,4-trimethylpiperazin-1-yl)-4H,5H-[1,2,3]triazolo[1,5-a]quinazolin-5-one]: “++ (ratio ≤ 125)”, 20.8 to 104 µM and 2.08 to 10.4 µM.
The matching figures for `Cc1ccc(S(=O)(=O)c2nnn3c2[nH]c(=O)c2ccc(N4CCN5CCOCC5C4)cc23)c(C)c1` (stereo not drawn) [Compound 30, 3-(2,4-dimethylbenzenesulfonyl)-8-{octahydropyrazino[2,1-c][1,4]oxazin-8-yl}-4H,5H-[1,2,3]triazolo[1,5-a]quinazolin-5-one]: “+++ (ratio ≤ 25)”, 20.2 to 101 µM and 2.02 to 10.1 µM.
The matching figures for `CNC1CCN(c2ccc3c(=O)[nH]c4c(S(=O)(=O)c5ccc(C)cc5C)nnn4c3c2)CC1` [Compound 31, 3-(2,4-dimethylbenzenesulfonyl)-8-[4-(methylamino)piperidin-1-yl]-4H,5H-[1,2,3]triazolo[1,5-a]quinazolin-5-one]: “+++ (ratio ≤ 25)”, 21.4 to 107 µM and < 2.14 µM.
On to `Cc1ccc(S(=O)(=O)c2nnn3c2[nH]c(=O)c2ccc(N4CCC(N(C)C)CC4)cc23)c(C)c1` [Compound 32, 8-[4-(dimethylamino)piperidin-1-yl]-3-(2,4-dimethylbenzenesulfonyl)-4H,5H-[1,2,3]triazolo[1,5-a]quinazolin-5-one], for which the “Ratio IC50 (in presence of HSA)/IC50” value is on record as “+++ (ratio ≤ 25)”. For the same molecule, the IC50 under setting [1] lay in the range of 20.8 to 104 µM. Further, the IC50 under setting [2] was 2.08 to 10.4 µM.
Regarding `Cc1ccc(S(=O)(=O)c2nnn3c2[nH]c(=O)c2ccc(N4CCC(N)CC4)cc23)c(C)c1` [Compound 33, 8-(4-aminopiperidin-1-yl)-3-(2,4-dimethylbenzenesulfonyl)-4H,5H-[1,2,3]triazolo[1,5-a]quinazolin-5-one], the “Ratio IC50 (in presence of HSA)/IC50” value is “+++ (ratio ≤ 25)”. For the same molecule, the concentration for half-maximal inhibition (IC50) under setting [1] is < 22.1 µM. Besides, the IC50 under setting [2] was < 2.21 µM.
For the molecule `CNC1CCN(c2ccc3c(=O)[nH]c4c(S(=O)(=O)c5ccc(C)cc5C)nnn4c3c2)C1` (stereo not drawn) [Compound 34, 3-(2,4-dimethylbenzenesulfonyl)-8-[3-(methylamino)pyrrolidin-1-yl]-4H,5H-[1,2,3]triazolo[1,5-a]quinazolin-5-one], the “Ratio IC50 (in presence of HSA)/IC50” value is recorded as “++ (ratio ≤ 125)”. Further, the 50% inhibitory concentration (IC50) under setting [1] fell in the range of 22.1 to 110 µM. Under setting [2], the IC50 was < 2.21 µM.
